Source: PubChem BioAssay AID602211 (Sanford-Burnham Center for Chemical Genomics, 2012)
The source made the active and inactive calls.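 Rule for the calls: active = mean IC50 at or below 10 µM; inactive = the rest.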

Test system: H9c2 cardiomyocytes, H2O2 protection, ATPLite viability, 2 h
Test: protection of H9c2 cardiomyocytes from H2O2 death, dose response, cell-based, ATPLite luminescence, set 2 (AID 602211);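 note: potency is for protection so actives keep ATP signal up against peroxide killing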

| SMILES | IC50 |
| --- | --- |
| CC12C=CC(=O)CC1CCC1C2CCC2(C)C(O)C(O)CC12 (stereo not given) | 2.62 µM |
| Cc1ccc(-c2nnc3ccc(SCC(=O)N4CCCc5ccccc54)nn23)cc1 | > 79 µM (inactive) |
| COc1cc(-c2cnc3c(NC=O)cc(-c4ccsc4)cn23)cc(OC)c1OC | > 79 µM (inactive) |
| COc1ccc2oc(C(=O)Nc3ccc(N4CCOCC4)cc3)c(C)c2c1 | > 79 µM (inactive) |
| CCOC(=O)C1CCN(c2cc3c(cc2NC(=O)c2ccccc2)n(C)c(=O)n3C)CC1 | 5.18 µM |
| COc1cccc(-c2nn3c(-c4ccccn4)nnc3s2)c1 | 6.65 µM |
| COc1cc(OC)cc(C(=O)Nc2ccc(C(=O)Nc3ccccc3OC)cc2)c1 | 10.2 µM (inactive) |
| N#Cc1cnn2cc(-c3ncc(C(F)(F)F)cc3Cl)cnc12 | 29.9 µM (inactive) |
| COc1cc(-c2cc(NC(C)=O)c3ncc(-c4ccccc4)n3c2)cc(OC)c1OC | 6.75 µM |
| COc1ccc2[nH]c(=O)c(CN(Cc3cccnc3)S(=O)(=O)c3ccccc3F)cc2c1 | 0.43 µM |
| CCN(C[C@H]1N[C@@](CC)(C(=O)OC)[C@H]2C(=O)N(Cc3ccccc3)C(=O)[C@@H]12)C(=O)c1ccc(C(C)(C)C)cc1 | > 79 µM (inactive) |
| COc1ccc(COc2cc(-c3cccc(OC)c3)nc3ccc(NC(=O)c4ccc(OC)cc4)cc23)cc1 | 2.42 µM |
| Cc1nc(N2CCN(c3ccccn3)CC2)c2c(C)c(C(=O)Nc3ccccc3F)sc2n1 | 4.04 µM |
| CCOC(=O)c1c2c3c(cccc3n(C)c1=O)C(=O)c1ccccc1-2 | 10.1 µM (inactive) |
| COc1ccc(Nc2nnc(SCc3cc(=O)n4ccsc4n3)s2)cc1 | 8.23 µM |
| COc1ccc(-c2cc(NC=O)c3ncc(-c4ccc(C(C)=O)cc4)n3c2)cn1 | 4.52 µM |
| CC1Cc2ccccc2N1C(=O)c1cc2c(=O)n3ccccc3nc2n1C (stereo not given) | > 79 µM (inactive) |
| COc1ccc(C(=O)O/N=C(/c2ccccc2)c2ccncc2)cc1OC | 10.7 µM (inactive) |
| O=C(c1cc(-c2cccnc2)nc2ccc(Br)cc12)N1CCN(c2ncccn2)CC1 | 3.6 µM |
| COc1ccccc1NC(=O)c1cc(-c2cc(OC)c(OC)c(OC)c2)nc2ccccc12 | 2.88 µM |
| CC(C)CC(C(=O)NC1CCCCC1)N(Cc1cccs1)C(=O)c1snc(C(N)=O)c1N (stereo not given) | 10.2 µM (inactive) |
| CSc1nc2ccc(S(=O)(=O)Nc3c(C)n(C)n(-c4ccccc4)c3=O)cc2s1 | 3.1 µM |
| CCOC(=O)C1CCN(c2cc3c(cc2NC(=O)c2ccccc2Cl)n(C)c(=O)n3C)CC1 | 5.6 µM |
| O=C1NC(Cc2ccc(O)cc2)c2nc3ccc(F)cc3c(=O)n2-c2cc3ccccc3cc21 (stereo not given) | 3.72 µM |

| SMILES | IC50 |
| --- | --- |
| COc1cccc(-c2cnc3c(NC=O)cc(-c4cc(C)c(O)c(C)c4)cn23)c1 | 10.2 µM (inactive) |
| O=C(C[C@@H]1C/C=C/CC[C@@H](Cc2ccc(F)cc2)C(=O)O[C@@H](c2ccccc2)CNC1=O)NCCO | 10.9 µM (inactive) |
| COC(=O)c1ccc2c(=O)[nH]c(COC(=O)c3[nH]c(C)c(C(C)=O)c3C)nc2c1 | 5.29 µM |
| O=C(/C=C\c1cn(-c2ccccc2)nc1-c1ccc2c(c1)OCCO2)N1CCOCC1 | 7.49 µM |
| C=CC[C@@H](CC(=O)NCCO)C(=O)NC[C@H](OC(=O)[C@@H](CC=C)Cc1ccc(F)cc1)c1ccccc1 | 3.38 µM |
| COc1ccc(Cl)cc1NC(=O)CCS(=O)(=O)c1cc2c(cc1C)NC(=O)CO2 | 8.29 µM |
| O=C(CN1CCCCC1)Nc1nc(-c2ccc(F)c(F)c2)cs1 | > 79 µM (inactive) |
| COC(=O)c1cccc(Nc2nc(-c3cccnc3)nc3ccccc23)c1 | 7.12 µM |
| O=C(NCC(=O)N(Cc1cccs1)C(C(=O)NC1CCCCC1)c1ccco1)c1cccs1 (stereo not given) | 3.23 µM |
| COc1ccc(CCNc2nc(-c3cccnc3)nc3ccccc23)cc1OC | 2.28 µM |
| CCOc1cccc(Nc2cc3n(c(=O)n2)CCc2cc(OC)c(OC)cc2-3)c1 | 23 µM (inactive) |
| O=C(NC1CCCCC1)C(c1ccc2ncccc2c1)N(Cc1ccco1)C(=O)c1ccc2c(c1)OCCO2 (stereo not given) | 10.8 µM (inactive) |
| CCn1c(O)c(/C=N/N=C/c2ccccc2)c2ccc(C3=NNC(=O)CC3)cc21 | 4.56 µM |
| COc1ccc(-c2cc3nc(-c4ccccc4)cc(N4CCN(C(=O)c5ccoc5)CC4)n3n2)cc1 | 4.91 µM |
| O=C(c1ccc(-c2nc3ccccc3s2)o1)N1CCN(c2ccccc2O)CC1 | 5.48 µM |
| CC(=O)c1cccc(-c2cnc3c(NC=O)cc(-c4cccc(C(=O)N(C)C)c4)cn23)c1 | 14.9 µM (inactive) |
| CC/C(C)=N\N=C\c1c(O)n(CC)c2cc(C3=NNC(=O)CC3)ccc12 | 16.6 µM (inactive) |
| CNC(=O)COC(=O)/C=C/c1cn(-c2ccccc2)nc1-c1ccc(C)o1 | 6.31 µM |
| Cc1ccc2cc3c(NC(=O)c4cccnc4)nn(C)c3nc2c1 | 15.9 µM (inactive) |
| COc1ccc(-c2cc(C(=O)NNC(=O)c3csc(N4CCOCC4)n3)c3ccccc3n2)cc1 | 14.1 µM (inactive) |
| N#Cc1ccccc1S(=O)(=O)N1CCN(c2nc(-c3cccnc3)nc3ccccc23)CC1 | > 79 µM (inactive) |
| CCCNC(=O)c1ccc(N2CCC3(CC2)CC(c2ccccc2)=NO3)c(NC(=O)c2ccco2)c1 | 4.21 µM |
| O=C(Nc1ccccc1)c1nc[nH]c1C(=O)NCCCCNC(=O)c1[nH]cnc1C(=O)Nc1ccccc1 | 2.04 µM |
| COc1ccc(Cl)cc1-c1nc(-c2ccc(NC(=O)c3cccs3)cc2)no1 | > 79 µM (inactive) |

| SMILES | IC50 |
| --- | --- |
| O=C(NCc1ccco1)C(c1ccccc1)N(C(=O)Cc1cccs1)c1ccccc1F (stereo not given) | 3.52 µM |
| CCOC(=O)C1=C(CC)Nc2ccccc2N=C1NC(=O)c1ccc(S(=O)(=O)N(C)C)cc1 | 4.8 µM |
| COc1cc(/C=C/c2nc3ccccc3c(=O)n2-c2ccc(O)cc2)ccc1O | 3.01 µM |
| CCCn1nc(C(=O)Nc2nc(-c3ccccn3)cs2)c2ccccc2c1=O | 3.37 µM |
| COC(=O)c1[nH]c2cc(OC)c(OC)cc2c1/C=N/Nc1ccccc1 | 6.78 µM |
| COc1cc(-c2cc(C(=O)NCc3ccco3)c3ccccc3n2)cc(OC)c1OC | 13.5 µM (inactive) |
| O=C(Nc1ccc(C(=O)N2CCOCC2)cc1)c1cnn2c(C(F)F)cc(-c3ccccc3)nc12 | 2.8 µM |
| O=C(CCCN1C(=O)c2cccc3cccc(c23)C1=O)N1CCN(c2ccccc2O)CC1 | 4.54 µM |
| COc1ccc(OC)c(/C=N/Nc2nncn2/N=C/c2cc(OC)ccc2OC)c1 | 6.17 µM |
| COc1cc(/C=N/NC(=O)c2cccnc2)ccc1OCC(=O)Nc1ccccc1Cl | 1.78 µM |
| Cc1ccc(-c2nn3c(-c4ccco4)nnc3c3ccccc23)cc1S(=O)(=O)NCC1CCCO1 (stereo not given) | 10.6 µM (inactive) |
| O=c1cc(-c2cccnc2)oc2c1ccc1ccccc12 | 31.2 µM (inactive) |
| Cc1ccc(C=NNc2nc3c([nH]2)c(=O)n(C)c(=O)n3C)cc1 | 3.93 µM |
| Cc1ccc(C)c(NC(=O)C(Sc2nc3ccccc3c(=O)n2CC(C)C)c2ccccc2)c1 (stereo not given) | 0.35 µM |
| CCOc1ccc(C(C(=O)NCC2CCCO2)N(C(=O)c2snc(C(N)=O)c2N)c2ccccc2F)cc1 (stereo not given) | 3.67 µM |
| NC(=O)c1cccc(-c2coc3c(C(=O)NCCc4ccccc4)cccc23)c1 | > 79 µM (inactive) |
| COc1cc(-c2cc(C(=O)N3CCN(c4ccccn4)CC3)c3ccccc3n2)cc(OC)c1OC | 3.56 µM |
| Nc1c(C(=O)N/N=C/c2cccnc2)oc2nc(-c3ccccc3)cc(-c3ccco3)c12 | 2.86 µM |
| CCOC(=O)c1ccc(-c2ccc3ncnc(NCc4csc(C)n4)c3c2)o1 | > 79 µM (inactive) |
| COc1ccc(-c2cc(C(=O)N(C)Cc3ccc(OC)c(OC)c3OC)c3ccccc3n2)cc1OC | 4.04 µM |
| Cc1cc(N)n(-c2nc(-c3cccnc3)nc3ccccc23)n1 | 16.2 µM (inactive) |
| Cc1c(C(=O)Nc2ccc3nc(N4CCOCC4)sc3c2)oc2ccccc12 | > 79 µM (inactive) |
| COc1cc(C(=O)NCC(=O)N/N=C/c2ccc(-c3cccc([N+](=O)[O-])c3)o2)cc(OC)c1OC | 9.76 µM |
| O=C(NCCc1c[nH]c2ccccc12)C(=O)NCC(c1ccco1)N1CCN(c2ccccc2F)CC1 (stereo not given) | 5.64 µM |

| SMILES | IC50 |
| --- | --- |
| COc1ccc(CSc2nc3ccccc3c(=O)[nH]2)cc1F | 8.59 µM |
| CC(C)N1C(=O)S/C(=C/c2ccc3c(c2)n(C)c(=O)n3C)C1=O | 1.71 µM |
| Cc1c(/C=N/NC(=O)c2ccc(O)cc2)c2ccccn2c1C(=O)c1ccc(F)cc1 | 5.2 µM |
| CCOc1ccc2ccccc2c1C(=O)N[C@@H]1C(=O)N2[C@@H]1SC(C)(C)[C@@H]2C(=O)O | 24.4 µM (inactive) |
| Cc1cc(C)cc(OCC(=O)Nc2cccc(-c3nc4ncccc4o3)c2)c1 | > 79 µM (inactive) |
| Cc1cc(NC(=O)c2cccs2)cc(-c2nc3ncccc3o2)c1O | 3.76 µM |
| O=C(CNC(=O)c1nc[nH]c1C(=O)NCC(=O)OCc1ccccc1)OCc1ccccc1 | 0.38 µM |
| CC1Nc2ncnc(N3CCN(c4ccccc4)CC3)c2N(Cc2ccc(Cl)cc2)C1=O (stereo not given) | 5.41 µM |
| COc1cccc(/C=N/NC(=O)c2nc(-c3ccccc3)cc(-c3ccccc3)n2)c1 | 1.61 µM |
| CCC1(CC)NC(=O)N(CC(=O)OCC(=O)Nc2ccccc2[N+](=O)[O-])C1=O | 37.3 µM (inactive) |
| COC(=O)c1cc2c(C)c(C)c3ccccn3c-2c1C(=O)OC | > 79 µM (inactive) |
| COc1ccc(-c2cc(C(=O)N(C)Cc3nc4ccccc4c(=O)[nH]3)c3ccccc3n2)cc1OC | 1.71 µM |
| CCOc1ncccc1C(=O)Nc1cccc(-c2nc3cccnc3s2)c1 | 3.51 µM |
| c1cncc(-c2nc(NCC3COc4ccccc4O3)c3ccccc3n2)c1 (stereo not given) | > 79 µM (inactive) |
| Cn1c2ccccc2c2cc(/C=N/NC(=O)c3cc(O)ccc3O)ccc21 | > 79 µM (inactive) |
| CC(=O)Nc1ccc(S(=O)(=O)N(Cc2cccnc2)Cc2cc3ccccc3[nH]c2=O)cc1 | 1.51 µM |
| Cc1c(C(=O)NCC2COc3ccccc3O2)oc2ccc(S(=O)(=O)N3CCOCC3)cc12 (stereo not given) | > 79 µM (inactive) |
| COC(=O)c1ccc(OCC(=O)Nc2ccccc2C(=O)NC2CC2)cc1 | 22.6 µM (inactive) |
| Cc1ccc(NC(=O)c2nc[nH]c2C(=O)NCCCNC(=O)c2[nH]cnc2C(=O)Nc2ccc(C)cc2)cc1 | 1.1 µM |
| COc1cc(-c2cc(NC=O)c3ncc(-c4ccc(C(C)=O)cc4)n3c2)ccc1O | 3.61 µM |
| Cn1c(=O)n(CCc2ccccc2)c(=O)c2c1nc1n2CCCN1Cc1ccccc1 | > 79 µM (inactive) |
| COc1cc(-c2cc(C(=O)Nc3cccc(C(C)=O)c3)c3ccccc3n2)cc(OC)c1OC | 3.59 µM |
| CCCOc1ccc2[nH]c(C(=O)N/N=C/c3cc(OC)c(OC)c(OC)c3)cc2c1 | 4.04 µM |
